For orientation: IC50 means the point on the concentration scale where inhibition reaches its midpoint. A high value points to a need for much substance.

Drawing on patent publication US20140349970A1 (ABBVIE INC., priority 2009, published 2014), this text covers IC50 for 58 compounds.

In the first test the target is T1, Syk catalytic domain (aa 356-635 with a C-terminal His-tag) (Homo sapiens, UniProt P43405).
T1 construct: His-tag (C); made in house
Description: In vitro Syk kinase activity measured by trFRET, Syk catalytic domain. It is filed as biochemical.
Conditions: not given
The method, then:
In Vitro Syk Kinase Activity Measured by Time-Resolved Fluorescence Resonance Energy Transfer (trFRET)
0.14 nM purified Syk catalytic domain (aa 356-635 with a C-terminal His-tag purified in-house by immobilized metal ion affinity chromatography) was mixed with 0.2 μM peptide substrate (biotin-TYR1, Sequence: Biotin-(Ahx)-GAEEEIYAAFFA-COOH) at varying inhibitor concentrations in reaction buffer: 50 mM MOPSO pH 6.5, 10 mM MgCl2, 2 mM MnCl2, 2.5 mM DTT, 0.01% BSA, 0.1 mM Na3VO4 and 0.001 mM ATP. After about 60 min incubation at rt, the reaction was quenched by addition of EDTA (final concentration: 100 mM) and developed by addition of revelation reagents (final approximate concentrations: 30 mM HEPES pH 7.0, 0.06% BSA, 0.006% Tween-20, 0.24 M KF, 80 ng/mL PT66K (europium labeled anti-phosphotyrosine antibody cat #61T66KLB Cisbio, Bedford, Mass.) and 0.6 μg/mL SAXL (Phycolink streptavidin-allophycocyanin acceptor, cat #PJ255, Prozyme, San Leandro, Calif.). The developed reaction was incubated in the dark either at about 4° C. for about 14 h or for about 60 min at rt, then read via a time-resolved fluorescence detector (Rubystar, BMG) using a 337 nm laser for excitation and monitoring emission wavelengths at 665 nm. Within the linear range of the assay, the observed signal at 665 nm was directly related to phosphorylated product and can be used to calculate the IC50 values.
MOPSO buffer contains: 50 mM MOPSO pH 6.5, 10 mM MgCl2, 2 mM MnCl2, 2.5 mM DTT, 0.01% BSA, and 0.1 mM Na3VO4 HEPES buffer contains: 50 mM HEPES pH 7.1, 2.5 mM DTT, 10 mM MgCl2, 2 mM MnCl2, 0.01% BSA, and 0.1 mM Na3VO4 MOPS buffer contains: 20 mM MOPS pH 7.2, 10 mM MgCl2, 5 mM EGTA, 5 mM Beta-phosphoglycerol, 1 mM Na3VO4, 0.01% Triton-X-100 and 1 mM DTT
Biotin-TYR1-peptide sequence: Biotin-(Ahx)-GAEEEIYAAFFA-COOH Biotin-TYR2-peptide sequence: Biotin-(Ahx)-AEEEYFFLFA-amide KinEASE 51 peptides were purchased from Cisbio (cat #62ST0PEB, Bedford, Mass.)
PT66K was purchased from Cisbio (cat #61T66KLB, Bedford, Mass.) EuSTK was purchased from Cisbio (cat #62ST0PEB, Bedford, Mass.) SAXL was purchased from Prozyme (cat #PJ25S, San Leandro, Calif.) Human T-Blasts IL-2 pSTAT5 Cellular Assay
On to `Cc1nc(-c2ccc(CO)nc2)c2cnc3[nH]ccc3n12` [AC.1.3], for which the IC50 lay within 100 to 1000 nM.

Compound `COc1cccc(-c2nc(C3CCCCC3)n3c2cnc2[nH]ccc23)c1` [AC.3.1] yielded an IC50 of 1000 to 10000 nM. On to `COc1ccc(-c2ncn3c2cnc2[nH]ccc23)cc1Cl` [AC.4.9], for which the IC50 is less than 100 nM.

For the compound `Cc1ncccc1-c1nc(-c2ccc(C(C)(C)O)cc2)c2cnc3[nH]ccc3n12` [AC.5.3], the IC50 lay in the range of 100 to 1000 nM. In the case of `CC(=O)N1CCC[C@@H]1c1nc(-c2ccc(C(C)(C)O)cc2)c2cnc3[nH]ccc3n12` [AC.5.1], the IC50 is 100 to 1000 nM. On the same count and under the same terms, the value for `Cc1nc(-c2cccnc2)c2cnc3[nH]ccc3n12` [AC.1.22] was 1000 to 10000 nM; that for `Cc1cc(-c2nc(C)n3c2cnc2[nH]ccc23)ccc1N1CCOCC1` [AC.1.27] was less than 100 nM; that for `COc1ccc(-c2nc(C)n3c2cnc2[nH]ccc23)c(F)c1` [AC.1.18] was 1000 to 10000 nM.

In the case of `Cc1cnc2cnc3[nH]c(-c4ccc(C(C)(C)O)cc4)cc3n12` [S.1.10], the IC50 was 100 to 1000 nM. The same measure, in the same setting: the value for `CS(=O)(=O)c1ccc(-c2nc([C@H]3CC[C@H](N)CC3)n3c2cnc2[nH]ccc23)cc1` [P.3.1.11] was 100 to 1000 nM; that for `CC(C)(O)c1ccc(-c2nc(C3CCOCC3)n3c2cnc2[nH]cc(C#N)c23)cc1` [AE.1.1] was 1000 to 10000 nM; that for `CC(C)(N)c1ccc(-c2nc(C3CCCCC3)n3c2cnc2[nH]ccc23)cc1` [P.3.1.1, 2-(4-(1-Cyclohexyl-6H-imidazo[1,5-a]pyrrolo[2,3-e]pyrazin-3-yl)phenyl)propan-2-amine] was 100 to 1000 nM. The same measure, in the same setting: the value for `Cc1nc(-c2ccc(C(C)(C)O)nc2)c2cnc3[nH]ccc3n12` [AC.1.24] was 100 to 1000 nM; that for `Cc1nc(-c2cccc3nccnc23)c2cnc3[nH]ccc3n12` [AC.1.5] was greater than 10000 nM; that for `Cc1nc(-c2ccc(OCCN3CCOCC3)cc2)c2cnc3[nH]ccc3n12` [AC.1.14] was less than 100 nM. With `Cc1nc(-c2ccc(S(C)(=O)=O)cc2)c2cnc3[nH]ccc3n12` [AC.1.6], the IC50 fell in the range of 100 to 1000 nM. Compound `Cn1ccc2cc(-c3nc(C4CCCCC4)n4c3cnc3[nH]ccc34)ccc21` [AC.3.8] displayed an IC50 of 100 to 1000 nM. As for `CC(=O)N1CCC[C@H]1c1nc(-c2ccc(C(C)(C)O)cc2)c2cnc3[nH]ccc3n12` [AC.5.9], the IC50 fell in the range of 1000 to 10000 nM.

Compound `NS(=O)(=O)c1ccc(-c2nc(C3CCCCC3)n3c2cnc2[nH]ccc23)cc1` [AC.3.15] showed a half-inhibitory concentration (IC50) of 100 to 1000 nM. Consider `COc1ccc(-c2nn(C)c3c2cnc2[nH]ccc23)cc1` [AU.1.1, 3-(4-methoxyphenyl)-1-methyl-1,6-dihydropyrazolo[3,4-d]pyrrolo[2,3-b]pyridine], for which the IC50 is less than 100 nM.

`CC(C)S(=O)(=O)c1ccc(-c2nc(C3CCCCC3)n3c2cnc2[nH]ccc23)cc1` [AC.3.30] gave an IC50 of 100 to 1000 nM. Same read-out and setting: as for `CCc1c(-c2ccc(C(C)(C)O)cc2)[nH]c2ncc3nncn3c12` [S.1.9], the figure is 100 to 1000 nM. `CCc1c(-c2ccc(C(C)(C)O)cc2)[nH]c2ncc3cccn3c12` [S.1.6] had an IC50 of less than 100 nM. `COc1ccc(-c2ncn3c2cnc2[nH]ccc23)cc1OC` [AC.4.8] gave an IC50 of less than 100 nM. For `O=S(=O)(NCCO)c1cccc(-c2nc(C3CCCCC3)n3c2cnc2[nH]ccc23)c1` [AC.3.21], the IC50 fell in the range of 100 to 1000 nM. `CC(=O)c1cccc(-c2nc(C3CCCCC3)n3c2cnc2[nH]ccc23)c1` [AC.3.4] registered an IC50 of 100 to 1000 nM.

Staying with this test, now noted: Syk catalytic domain (aa 356-635), trFRET, 0.001 mM ATP.
With `CN1CCN(CCNC(=O)Cc2cccc(-c3cc4c(ncc5cnn(C)c54)[nH]3)c2)CC1` [N.1, 2-(3-(1-Methyl-1,6-dihydropyrazolo[3,4-d]pyrrolo[2,3-b]pyridin-7-yl)phenyl)-N-(2-(4-methylpiperazin-1-yl)ethyl)acetamide], the IC50 was 1000 to 10000 nM. As for `COc1ccc(-c2nn(C)c3c2cnc2[nH]cc(C#N)c23)cc1` [M.2.3], the IC50 was less than 100 nM. `COc1ccc2c(c1)c(-c1cc3c4c(cnc3n1COP(=O)(O)O)cnn4C)cn2C` [Example 9, (7-(5-Methoxy-1-methyl-1H-indol-3-yl)-1-methylpyrazolo[3,4-d]pyrrolo[2,3-b]pyridin-6(1H)-yl)methyl dihydrogen phosphate] showed an IC50 of 1000 to 10000 nM. In turn, `Cc1nc(-c2ccc(C(C)(C)O)c(Cl)c2)c2cnc3[nH]ccc3n12` [N.1.108] returned an IC50 of less than 100 nM.

Consider `CCc1c(-c2ccc(C(=O)NCCN3CCOCC3)cc2)[nH]c2ncc3cnn(C)c3c12` [N.1.36], for which the IC50 was 100 to 1000 nM. Take `COc1ccc2c(c1)c(-c1cc3c4c(cnc3[nH]1)CCN4C)cn2C` [N.1.22]: the IC50 was in the range of 1000 to 10000 nM.

`COc1ccc2c(c1)c(-c1cc3c(ncc4cnc([C@@H]5CC[C@H](NS(=O)(=O)C6CC6)C5)n43)[nH]1)cn2C` [K.1.1] yielded an IC50 of less than 100 nM.

`COCCN(C)c1cnc2cnc3[nH]c(-c4cn(C)c5ccc(OC)cc45)cc3n12` [M.1.21] registered an IC50 of less than 100 nM.

Take `CC(=O)c1ccc(-c2cc3c(ncc4cnc(C(=O)NCCN(C)C)n43)[nH]2)cc1` [J.1.5.2]: the IC50 is 100 to 1000 nM. On the same count and under the same terms, the value for `CCc1c(-c2cn(C)c3ccc(OC)cc23)[nH]c2ncc3cnn(C)c3c12` [N.1.35] was 1000 to 10000 nM. Regarding `COc1ccc2c(c1)c(-c1nc(C3CCCCC3)n3c1cnc1[nH]ccc13)cn2C` [N.1.48], the IC50 fell in the range of 1000 to 10000 nM.

In turn, `COc1ccc(-c2nc(C(C)C)n3c2cnc2[nH]ccc23)cc1` [N.1.91] displayed an IC50 of 100 to 1000 nM. Take `CS(=O)(=O)c1cccc(-c2cc3c(ncc4cnc(C5CCC(O)C5)n43)[nH]2)c1` (stereo not shown) [M.1.6]: the IC50 was 100 to 1000 nM. As to `CCc1c(-c2cccc(C(=O)NCCN3CCOCC3)c2)[nH]c2ncc3cnn(C)c3c12` [N.1.30], the IC50 lay in the range of 1000 to 10000 nM.

For the compound `CN(C)CCNC(=O)Cc1cccc(-c2cc3c(ncc4cnn(C)c43)[nH]2)c1` [Example 1, N-(2-(dimethylamino)ethyl)-2-(3-(1-methyl-1,6-dihydropyrazolo[3,4-d]pyrrolo[2,3-b]pyridin-7-yl)phenyl)acetamide], the IC50 fell in the range of 100 to 1000 nM.

Compound `CC(C)(O)c1ccc(-c2nc(-c3cccnc3)n3c2cnc2[nH]ccc23)cc1` [AC.6.1] showed an IC50 of less than 100 nM. Same read-out and setting: as for `Cc1nnc2cnc3[nH]c(-c4cnn(C)c4)cc3n12` [M.1.12], the figure is 1000 to 10000 nM; as for `Cn1ncc2cnc3[nH]c(-c4cccc5ncccc45)cc3c21` [N.2.6], 1000 to 10000 nM; as for `COCCCNC(=O)c1cccc(-c2cc3c(ncc4cnn(C)c43)[nH]2)c1` [N.1.7], 100 to 1000 nM. Compound `CC(C)(O)c1ccc(-c2nc(-c3cccnc3CO)n3c2cnc2[nH]ccc23)cc1` [D.2.4] came in with an IC50 of 100 to 1000 nM.

Compound `Cc1ccc(-c2cc3c(ncc4cnc(N(C)C)n43)[nH]2)cc1` [M.1.16] had an IC50 of 100 to 1000 nM. For `CCc1c[nH]c2ncc3c(-c4ccc(OC(C)C)cc4)nn(C)c3c12` [N.1.69], the IC50 lay within 100 to 1000 nM. The compound `COc1ccc2c(c1)c(-c1cc3c(ncc4cnn(C)c43)[nH]1)cn2CCN(C)C` [N.2.13] displayed an IC50 of 100 to 1000 nM.

`Cc1nc(-c2ccc(C(C)(C)O)cc2Cl)c2cnc3[nH]ccc3n12` [N.1.103] had an IC50 of 1000 to 10000 nM.

Regarding `CCc1c[nH]c2ncc3c(-c4ccc(S(N)(=O)=O)cc4)nn(C)c3c12` [N.1.72], the IC50 lay within 100 to 1000 nM.

As for `COc1ccc2c(c1)c(-c1cc3c(ncc4cnn(C)c43)[nH]1)cn2CCO` [N.2.12], the IC50 is less than 100 nM. As for `CC(C)(O)c1ccc(-c2ncn3c2cnc2[nH]ccc23)cc1` [N.1.53], the IC50 was less than 100 nM. In turn, `COc1ccc2c(c1)c(-c1cc3c(ncc4cnc(CCCNC(C)=O)n43)[nH]1)cn2C` [Example 5, N-(3-(7-(5-Methoxy-1-methyl-1H-indol-3-yl)-6H-imidazo[1,5-a]pyrrolo[2,3-e]pyrazin-1-yl)propyl)acetamide] yielded an IC50 of less than 100 nM. Same read-out and setting: as for `Cn1cc(-c2cc3c(ncc4cnn(C)c43)[nH]2)c2cc(C(=O)NCC(C)(C)CO)ccc21` [J.2.2.2], the figure is less than 100 nM; as for `CN(C)CCNC(=O)c1ccc2c(c1)c(-c1cc3c(ncc4cnn(C)c43)[nH]1)cn2C` [J.1.8.2], 100 to 1000 nM; as for `COc1ccc2c(c1)c(-c1cc3c(ncc4cnn(C)c43)[nH]1)cn2CC(=O)N(C)C` [N.1.25], less than 100 nM. Still for that read-out and setting: the value for `COc1ccc(-c2nc(C)n3c2cnc2[nH]ccc23)cc1C(=O)NCCN(C)C` [J.1.7.2] was 100 to 1000 nM.
